Measurements as given in PubChem BioAssay AID248 (DTP/NCI, 2004).
Several values for one entry are separate records, joined by “and”; a condition that tells them apart may be missing. Equal entries are not always repeated. Toxic doses and inconclusive results are not listed.

Tested on: L1210 leukemia ip in BDF1 mice, survival T/C
Assay: NCI In Vivo Anticancer Drug Screen. Data for tumor model L1210 Leukemia (intraperitoneal) in B6D2F1 (BDF1) mice
Settings: endpoint: mean survival time, higher = longer survival
Outline: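 Value reflects the ratio of survival in compound-treated mice to survival in vehicle-treated controls, with both groups carrying the same transplanted tumor.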

[1] = dose: 100.0 mg/kg/injection, schedule: Q04DX003 (ip), vehicle: saline
[2] = dose: 200.0 mg/kg/injection, schedule: Q04DX003 (ip), vehicle: saline
[3] = dose: 400.0 mg/kg/injection, schedule: Q04DX003 (ip), vehicle: saline
[4] = dose: 100.0 mg/kg/injection, schedule: Q01DX001 (ip), vehicle: carboxymethylcellulose (CMC)
[5] = dose: 200.0 mg/kg/injection, schedule: Q01DX001 (ip), vehicle: carboxymethylcellulose (CMC)
[6] = dose: 400.0 mg/kg/injection, schedule: Q01DX001 (ip), vehicle: carboxymethylcellulose (CMC)
[7] = dose: 25.0 mg/kg/injection, schedule: Q01DX009 (ip), vehicle: saline with Tween-80
[8] = dose: 25.0 mg/kg/injection, schedule: Q04DX003 (ip), vehicle: carboxymethylcellulose (CMC)
[9] = dose: 50.0 mg/kg/injection, schedule: Q01DX009 (ip), vehicle: saline with Tween-80
[10] = dose: 100.0 mg/kg/injection, schedule: Q01DX009 (ip), vehicle: saline with Tween-80
[11] = dose: 100.0 mg/kg/injection, schedule: Q04DX003 (ip), vehicle: saline with Tween-80
[12] = dose: 100.0 mg/kg/injection, schedule: Q01DX009 (ip), vehicle: saline
[13] = dose: 200.0 mg/kg/injection, schedule: Q01DX009 (ip), vehicle: saline
[14] = dose: 50.0 mg/kg/injection, schedule: Q04DX003 (ip), vehicle: saline with Tween-80
[15] = dose: 50.0 mg/kg/injection, schedule: Q01DX001 (ip), vehicle: saline
[16] = dose: 100.0 mg/kg/injection, schedule: Q01DX001 (ip), vehicle: saline
[17] = dose: 100.0 mg/kg/injection, schedule: Q04DX002 (ip), vehicle: saline
[18] = dose: 200.0 mg/kg/injection, schedule: Q01DX001 (ip), vehicle: saline
[19] = dose: 200.0 mg/kg/injection, schedule: Q04DX002 (ip), vehicle: saline
[20] = dose: 100.0 mg/kg/injection, schedule: Q01DX009 (ip), vehicle: Klucel (hydroxypropylcellulose) (HPC)
[21] = dose: 100.0 mg/kg/injection, schedule: Q04DX003 (ip), vehicle: Klucel (hydroxypropylcellulose) (HPC)
[22] = dose: 200.0 mg/kg/injection, schedule: Q01DX009 (ip), vehicle: Klucel (hydroxypropylcellulose) (HPC)
[23] = dose: 200.0 mg/kg/injection, schedule: Q04DX003 (ip), vehicle: Klucel (hydroxypropylcellulose) (HPC)
[24] = dose: 400.0 mg/kg/injection, schedule: Q04DX003 (ip), vehicle: Klucel (hydroxypropylcellulose) (HPC)

For `O=C(CCl)N1CCN(C(=O)CCl)CC1`, the T/C (dose: 10.0 mg/kg/injection, schedule: Q01DX009 (ip), vehicle: Klucel (hydroxypropylcellulose) (HPC)) was 110 % of control, the T/C (dose: 20.0 mg/kg/injection, schedule: Q01DX009 (ip), vehicle: Klucel (hydroxypropylcellulose) (HPC)) was 101 % of control and the T/C (dose: 20.0 mg/kg/injection, schedule: Q04DX003 (ip), vehicle: Klucel (hydroxypropylcellulose) (HPC)) was 104 % of control. The T/C (dose: 40.0 mg/kg/injection, schedule: Q04DX003 (ip), vehicle: Klucel (hydroxypropylcellulose) (HPC)) was 106 % of control.
`O=C(O)C1C2C=CC(CC2)C1C(=O)O` (configuration not stated) was tested, and the T/C [1] was 96 % of control, the T/C [2] was 90 % of control and the T/C [3] was 94 % of control.
In the case of `COc1ccccc1NC(=O)NCCO`, the T/C [4] is reported as 103 % of control, the T/C [5] is reported as 95 % of control and the T/C [6] is reported as 103 % of control.
`O=C(O)c1c(Br)c(Br)c(Br)c(Br)c1C(=O)Nc1cccc2ccccc12` was tested, and the T/C (dose: 100.0 mg/kg/injection, schedule: Q04DX002 (ip), vehicle: saline with Tween-80) was 97 % of control, the T/C (dose: 200.0 mg/kg/injection, schedule: Q04DX002 (ip), vehicle: saline with Tween-80) was 97 % of control and the T/C (dose: 400.0 mg/kg/injection, schedule: Q04DX002 (ip), vehicle: saline with Tween-80) was 94 % of control.
`O=C(/C=C/c1cccc(Cl)c1)c1ccc(Cl)cc1` was tested, and the T/C [7] was 95 % of control and 96 % of control, the T/C [8] was 95 % of control and 103 % of control and the T/C [9] was 93 % of control and 95 % of control. The T/C (dose: 50.0 mg/kg/injection, schedule: Q04DX003 (ip), vehicle: carboxymethylcellulose (CMC)) was 105 % of control and 89 % of control, the T/C [4] was 94 % of control and the T/C (dose: 100.0 mg/kg/injection, schedule: Q01DX009 (ip), vehicle: carboxymethylcellulose (CMC)) was 86 % of control. The T/C [10] was 92 % of control and 91 % of control, the T/C (dose: 100.0 mg/kg/injection, schedule: Q04DX002 (ip), vehicle: carboxymethylcellulose (CMC)) was 92 % of control and 100 % of control and the T/C [5] was 92 % of control. The T/C (dose: 200.0 mg/kg/injection, schedule: Q01DX009 (ip), vehicle: carboxymethylcellulose (CMC)) was 90 % of control, the T/C (dose: 200.0 mg/kg/injection, schedule: Q04DX002 (ip), vehicle: carboxymethylcellulose (CMC)) was 100 % of control and 107 % of control and the T/C (dose: 200.0 mg/kg/injection, schedule: Q04DX003 (ip), vehicle: carboxymethylcellulose (CMC)) was 96 % of control. For the same molecule, the T/C [6] was 92 % of control, the T/C (dose: 400.0 mg/kg/injection, schedule: Q04DX002 (ip), vehicle: carboxymethylcellulose (CMC)) was 100 % of control and 102 % of control and the T/C (dose: 400.0 mg/kg/injection, schedule: Q04DX003 (ip), vehicle: carboxymethylcellulose (CMC)) was 91 % of control.
With `CC(=O)Oc1cc2c(OC(C)=O)c(-c3c(C)cc4c(C(C)C)c(OC(C)=O)c(OC(C)=O)cc4c3OC(C)=O)c(C)cc2c(C(C)C)c1OC(C)=O` the T/C [11] was 86 % of control.
`Cc1cn(C2CC(CO)CC2O)c(=O)[nH]c1=O` (configuration not stated) was tested, and the T/C (dose: 50.0 mg/kg/injection, schedule: Q01DX009 (ip), vehicle: saline) was 104 % of control, the T/C [12] was 107 % of control and the T/C [13] was 107 % of control.
For `CC1(c2cccs2)NC(=O)N(Cl)C1=O` (configuration not stated), the T/C [7] was 93 % of control, the T/C (dose: 25.0 mg/kg/injection, schedule: Q04DX003 (ip), vehicle: saline with Tween-80) was 99 % of control and the T/C [9] was 96 % of control. For the same molecule, the T/C [14] was 99 % of control, the T/C [10] was 105 % of control and the T/C [11] was 100 % of control and 91 % of control. For the same molecule, the T/C (dose: 200.0 mg/kg/injection, schedule: Q01DX009 (ip), vehicle: saline with Tween-80) was 94 % of control.
In the case of `C=C(CCCCC)C(=O)/C=C/c1ccc(Cl)c(Cl)c1`, the T/C (dose: 12.5 mg/kg/injection, schedule: Q04DX002 (ip), vehicle: DMSO) is reported as 101 % of control, the T/C (dose: 25.0 mg/kg/injection, schedule: Q04DX002 (ip), vehicle: DMSO) is reported as 114 % of control and the T/C (dose: 50.0 mg/kg/injection, schedule: Q04DX002 (ip), vehicle: DMSO) is reported as 104 % of control.
`Nc1ccc2c(c1)C(=O)c1ccccc1C2=O` was tested, and the T/C [15] was 98 % of control, the T/C [16] was 102 % of control and the T/C [12] was 92 % of control. For the same molecule, the T/C [17] was 100 % of control, the T/C [18] was 102 % of control and the T/C [13] was 92 % of control. The T/C [19] was 93 % of control, the T/C (dose: 400.0 mg/kg/injection, schedule: Q01DX001 (ip), vehicle: saline) was 102 % of control and the T/C (dose: 400.0 mg/kg/injection, schedule: Q01DX009 (ip), vehicle: saline) was 92 % of control. For the same molecule, the T/C (dose: 400.0 mg/kg/injection, schedule: Q04DX002 (ip), vehicle: saline) was 93 % of control.
In the case of `O=[N+]([O-])c1ccc(SNc2ccc(NSc3ccc([N+](=O)[O-])cc3)cc2)cc1`, the T/C (dose: 25.0 mg/kg/injection, schedule: Q01DX001 (ip), vehicle: saline with Tween-80) is reported as 96 % of control and the T/C (dose: 50.0 mg/kg/injection, schedule: Q01DX001 (ip), vehicle: saline with Tween-80) is reported as 100 % of control.
In the case of `N#CNC(=S)S`, the T/C [1] is reported as 105 % of control, the T/C [2] is reported as 93 % of control and the T/C [3] is reported as 104 % of control.
In the case of `COc1ccc(NC(=S)NNC(=S)NNc2ccccc2)cc1`, the T/C [20] is reported as 90 % of control, the T/C [21] is reported as 93 % of control and the T/C [22] is reported as 89 % of control. For the same molecule, the T/C [23] was 92 % of control and the T/C [24] was 86 % of control.
With `Cc1ccc2c(n1)Nc1nc(N)[nH]c(=O)c1S2` the T/C (dose: 12.5 mg/kg/injection, schedule: Q04DX003 (ip), vehicle: carboxymethylcellulose (CMC)) was 97 % of control and the T/C [8] was 97 % of control.
`CCN(CC)CCOc1ccc(C(C)(C)c2ccc(OCCN(CC)CC)cc2)cc1` was tested, and the T/C [17] was 108 % of control and the T/C [19] was 108 % of control.
For `C=CCn1c2ccccc2c2c(C)c3cnccc3c(C)c21`, the T/C [7] was 97 % of control, the T/C (dose: 37.5 mg/kg/injection, schedule: Q04DX003 (ip), vehicle: saline) was 111 % of control and the T/C [9] was 102 % of control. For the same molecule, the T/C [14] was 119 % of control, the T/C (dose: 75.0 mg/kg/injection, schedule: Q01DX009 (ip), vehicle: saline with Tween-80) was 186 % of control and the T/C (dose: 75.0 mg/kg/injection, schedule: Q04DX003 (ip), vehicle: saline) was 163 % of control. For the same molecule, the T/C [10] was 111 % of control, the T/C (dose: 125.0 mg/kg/injection, schedule: Q04DX003 (ip), vehicle: saline with Tween-80) was 184 % of control and the T/C (dose: 150.0 mg/kg/injection, schedule: Q01DX009 (ip), vehicle: saline with Tween-80) was 172 % of control. For the same molecule, the T/C (dose: 300.0 mg/kg/injection, schedule: Q04DX003 (ip), vehicle: saline) was 156 % of control.
For `O=NN1CCCCC1`, the T/C [15] was 93 % of control, the T/C [16] was 104 % of control and the T/C [18] was 96 % of control.
With `COc1ccc(-c2nc3ccccc3s2)cc1OC` the T/C [21] was 95 % of control and 105 % of control, the T/C [23] was 98 % of control and 102 % of control and the T/C [24] was 98 % of control and 105 % of control.
`CSc1nc2ccccc2s1` was tested, and the T/C [20] was 97 % of control, the T/C [21] was 105 % of control and the T/C [22] was 100 % of control. For the same molecule, the T/C [23] was 104 % of control and the T/C [24] was 95 % of control.
`O=C(N/N=C/c1ccco1)C1CCCO1` (configuration not stated) was tested, and the T/C (dose: 25.0 mg/kg/injection, schedule: Q01DX009 (ip), vehicle: Klucel (hydroxypropylcellulose) (HPC)) was 101 % of control, the T/C (dose: 50.0 mg/kg/injection, schedule: Q01DX009 (ip), vehicle: Klucel (hydroxypropylcellulose) (HPC)) was 102 % of control and the T/C [20] was 101 % of control and 114 % of control. For the same molecule, the T/C [22] was 106 % of control.
For `Clc1ccc2c(c1)C([P+](c1ccccc1)(c1ccccc1)c1ccccc1)c1cc(Cl)cc(Cl)c1-2` (configuration not stated), the T/C (dose: 100.0 mg/kg/injection, schedule: Q01DX001 (ip), vehicle: Klucel (hydroxypropylcellulose) (HPC)) was 95 % of control, the T/C [21] was 102 % of control and the T/C (dose: 200.0 mg/kg/injection, schedule: Q01DX001 (ip), vehicle: Klucel (hydroxypropylcellulose) (HPC)) was 93 % of control. The T/C [23] was 96 % of control, the T/C (dose: 400.0 mg/kg/injection, schedule: Q01DX001 (ip), vehicle: Klucel (hydroxypropylcellulose) (HPC)) was 95 % of control and the T/C [24] was 104 % of control.
